Values quoted from earlier work in patent publication US20110184024A1, “Pharmaceutical Composition Containing Esomeprazole” (CTC BIO, INC., priority 2007, published 2011).

Conditions: stored for two months at 25° C./60% RH

total impurities after storage: about 1%
SMILES: COc1ccc2nc([S@@+]([O-])Cc3ncc(C)c(OC)c3C)[nH]c2c1 [esomeprazole free base, (S)-5-methoxy-2-[(4-methoxy-3,5-dimethylpyridin-2-yl)methylsulfinyl]-3H-benzoimidazole]
